Results from patent US12590067B2, “Herbicidal cyclohexanedione derivatives” (SYNGENTA CROP PROTECTION AG, priority 2019, dated 2026).

Tests used:
Test in all cases: Glasshouse herbicidal test, pre- and post-emergence, percentage damage to the plant
Assay type in all cases: in vivo
[1] = tested on: Alopecurus myosuroides (ALOMY); conditions: 250 g/h, evaluated after 13 days; for ALOMY POST percentage damage caused to the plant (five-point scale): post-emergence; for ALOMY PRE percentage damage caused to the plant (five-point scale): pre-emergence
Protocol: (§1) Seeds of a variety of test species are sown in standard soil in pots (Lolium perenne (LOLPE), Setaria faberi (SETFA), Alopecurus myosuroides (ALOMY), Echinochloa crus-galli (ECHCG), Avena fatua (AVEFA)). After cultivation for one day (pre-emergence) or after 8 days cultivation (post-emergence) under controlled conditions in a glasshouse (at 24/16° C., day/night; 14 hours light; 65% humidity), the plants are sprayed with an aqueous spray solution derived from the formulation of the technical active ingredient in acetone/water (50:50) solution containing 0.5% Tween 20 (polyoxyethelyene sorbitan monolaurate, CAS RN 9005-64-5). Compounds are applied at 250 g/h. The test plants are then grown in a glasshouse under controlled conditions in a glasshouse (at 24/16° C., day/night; 14 hours light; 65% humidity) and watered twice daily. After 13 days for pre and post-emergence, the test is evaluated for the percentage damage caused to the plant. The biological activities are shown in the following table on a five-point scale (5=80-100%; 4=60-79%; 3=40-59%; 2=20-39%; 1=0-19%).

[2] = tested on: Avena fatua (AVEFA); conditions: 250 g/h, evaluated after 13 days; for AVEFA POST percentage damage caused to the plant (five-point scale): post-emergence; for AVEFA PRE percentage damage caused to the plant (five-point scale): pre-emergence
Protocol: as §1

[3] = tested on: Echinochloa crus-galli (ECHCG); conditions: 250 g/h, evaluated after 13 days; for ECHCG POST percentage damage caused to the plant (five-point scale): post-emergence; for ECHCG PRE percentage damage caused to the plant (five-point scale): pre-emergence
Protocol: as §1

[4] = tested on: Lolium perenne (LOLPE); conditions: 250 g/h, evaluated after 13 days; for LOLPE POST percentage damage caused to the plant (five-point scale): post-emergence; for LOLPE PRE percentage damage caused to the plant (five-point scale): pre-emergence
Protocol: as §1

[5] = tested on: Setaria faberi (SETFA); conditions: 250 g/h, evaluated after 13 days; for SETFA POST percentage damage caused to the plant (five-point scale): post-emergence; for SETFA PRE percentage damage caused to the plant (five-point scale): pre-emergence
Protocol: as §1

With `COc1cc(-c2ccc(C#N)cn2)cc(Cl)c1C1C(=O)CC2(CCN(C(C)=O)CC2)CC1=O` [Compound A13] as the compound, how does the “ALOMY POST percentage damage caused to the plant (five-point scale)” value (“ALOMY POST percentage damage caused” below) [1] read?
Its value is 5 (5=80-100%).

What about the “ALOMY PRE percentage damage caused to the plant (five-point scale)” value (“ALOMY PRE percentage damage caused” below) [1] of the same compound?
The value was 3 (3=40-59%).

What about the “AVEFA POST percentage damage caused to the plant (five-point scale)” value (shortened to “AVEFA POST percentage damage caused”) [2] of the same compound?
Its value is 5 (5=80-100%).

What about the “AVEFA PRE percentage damage caused to the plant (five-point scale)” value (from here on “AVEFA PRE percentage damage caused”) [2] of the same compound?
The value was 2 (2=20-39%).

And the “ECHCG POST percentage damage caused to the plant (five-point scale)” value (“ECHCG POST percentage damage caused” below) [3]?
The value was 5 (5=80-100%).

And the “ECHCG PRE percentage damage caused to the plant (five-point scale)” value (“ECHCG PRE percentage damage caused” below) [3]?
The value was 5 (5=80-100%).

What about the “LOLPE POST percentage damage caused to the plant (five-point scale)” value (shortened to “LOLPE POST percentage damage caused”) [4] of the same compound?
Its value is 5 (5=80-100%).

And the “LOLPE PRE percentage damage caused to the plant (five-point scale)” value (from here on “LOLPE PRE percentage damage caused”) [4]?
The value was 1 (1=0-19%).

And the “SETFA POST percentage damage caused to the plant (five-point scale)” value (“SETFA POST percentage damage caused” below) [5]?
The value was 5 (5=80-100%).

What about the “SETFA PRE percentage damage caused to the plant (five-point scale)” value (“SETFA PRE percentage damage caused” below) [5] of the same compound?
The value was 2 (2=20-39%).

`CC#Cc1cc(Cl)c(C2C(=O)CC3(CCN(C(C)=O)CC3)CC2=O)c(Cl)c1` [Compound A14] was tested. Which “ALOMY POST percentage damage caused” value [1] did it give?
The value was 5 (5=80-100%).

And the “ALOMY PRE percentage damage caused” value [1]?
The value was 5 (5=80-100%).

And the “AVEFA POST percentage damage caused” value [2]?
Its value is 5 (5=80-100%).

What about the “AVEFA PRE percentage damage caused” value [2] of the same compound?
Its value is 5 (5=80-100%).

What about the “ECHCG POST percentage damage caused” value [3] of the same compound?
Its value is 5 (5=80-100%).

And the “ECHCG PRE percentage damage caused” value [3]?
Its value is 5 (5=80-100%).

What about the “LOLPE POST percentage damage caused” value [4] of the same compound?
Its value is 5 (5=80-100%).

And the “LOLPE PRE percentage damage caused” value [4]?
Its value is 5 (5=80-100%).

And the “SETFA POST percentage damage caused” value [5]?
The value was 5 (5=80-100%).

What about the “SETFA PRE percentage damage caused” value [5] of the same compound?
Its value is 5 (5=80-100%).

Which “ALOMY POST percentage damage caused” value [1] does the source give for `CC#Cc1cc(Cl)c(C2C(=O)CC3(CCN(C(=O)CC#N)CC3)CC2=O)c(Cl)c1` [Compound A15] here?
Its value is 5 (5=80-100%).

What about the “ALOMY PRE percentage damage caused” value [1] of the same compound?
Its value is 5 (5=80-100%).

What about the “AVEFA POST percentage damage caused” value [2] of the same compound?
Its value is 5 (5=80-100%).

And the “AVEFA PRE percentage damage caused” value [2]?
The value was 5 (5=80-100%).

What about the “ECHCG POST percentage damage caused” value [3] of the same compound?
The value was 5 (5=80-100%).

What about the “ECHCG PRE percentage damage caused” value [3] of the same compound?
Its value is 5 (5=80-100%).

And the “LOLPE POST percentage damage caused” value [4]?
The value was 5 (5=80-100%).

And the “LOLPE PRE percentage damage caused” value [4]?
The value was 5 (5=80-100%).

What about the “SETFA POST percentage damage caused” value [5] of the same compound?
Its value is 5 (5=80-100%).

And the “SETFA PRE percentage damage caused” value [5]?
Its value is 5 (5=80-100%).

`CC#Cc1cc(Cl)c(C2C(=O)CC3(CCN(C(=O)C(F)F)CC3)CC2=O)c(Cl)c1` [Compound A16] was tested. Which “ALOMY POST percentage damage caused” value [1] did it give?
The value was 5 (5=80-100%).

And the “ALOMY PRE percentage damage caused” value [1]?
Its value is 5 (5=80-100%).

What about the “AVEFA POST percentage damage caused” value [2] of the same compound?
The value was 5 (5=80-100%).

What about the “AVEFA PRE percentage damage caused” value [2] of the same compound?
Its value is 5 (5=80-100%).

And the “ECHCG POST percentage damage caused” value [3]?
The value was 5 (5=80-100%).

And the “ECHCG PRE percentage damage caused” value [3]?
The value was 5 (5=80-100%).

What about the “LOLPE POST percentage damage caused” value [4] of the same compound?
Its value is 5 (5=80-100%).

And the “LOLPE PRE percentage damage caused” value [4]?
The value was 5 (5=80-100%).

What about the “SETFA POST percentage damage caused” value [5] of the same compound?
The value was 5 (5=80-100%).

What about the “SETFA PRE percentage damage caused” value [5] of the same compound?
The value was 5 (5=80-100%).

With `CC#Cc1cc(Cl)c(C2C(=O)CC3(CCN(C(=O)NC(=O)c4ccccn4)CC3)CC2=O)c(Cl)c1` [Compound A17] as the compound, how does the “ALOMY POST percentage damage caused” value [1] read?
Its value is 2 (2=20-39%).

And the “ALOMY PRE percentage damage caused” value [1]?
The value was 2 (2=20-39%).

What about the “AVEFA POST percentage damage caused” value [2] of the same compound?
The value was 5 (5=80-100%).

And the “AVEFA PRE percentage damage caused” value [2]?
The value was 2 (2=20-39%).

What about the “ECHCG POST percentage damage caused” value [3] of the same compound?
Its value is 5 (5=80-100%).

What about the “ECHCG PRE percentage damage caused” value [3] of the same compound?
Its value is 3 (3=40-59%).

And the “LOLPE POST percentage damage caused” value [4]?
The value was 5 (5=80-100%).

What about the “LOLPE PRE percentage damage caused” value [4] of the same compound?
Its value is 2 (2=20-39%).

And the “SETFA POST percentage damage caused” value [5]?
Its value is 5 (5=80-100%).

And the “SETFA PRE percentage damage caused” value [5]?
Its value is 4 (4=60-79%).

Which “ALOMY POST percentage damage caused” value [1] does the source give for `CC#Cc1cc(Cl)c(C2C(=O)CC3(CCN(C(=O)COC(F)F)CC3)CC2=O)c(Cl)c1` [Compound A18] here?
Its value is 5 (5=80-100%).

And the “ALOMY PRE percentage damage caused” value [1]?
The value was 5 (5=80-100%).

And the “AVEFA POST percentage damage caused” value [2]?
Its value is 5 (5=80-100%).

And the “AVEFA PRE percentage damage caused” value [2]?
The value was 5 (5=80-100%).

And the “ECHCG POST percentage damage caused” value [3]?
Its value is 5 (5=80-100%).

What about the “ECHCG PRE percentage damage caused” value [3] of the same compound?
Its value is 5 (5=80-100%).

What about the “LOLPE POST percentage damage caused” value [4] of the same compound?
The value was 5 (5=80-100%).

And the “LOLPE PRE percentage damage caused” value [4]?
The value was 5 (5=80-100%).

And the “SETFA POST percentage damage caused” value [5]?
The value was 5 (5=80-100%).

What about the “SETFA PRE percentage damage caused” value [5] of the same compound?
Its value is 5 (5=80-100%).
